Measured values taken from BindingDB's records for doi:10.1021/jm800328v (Yale University, 2008).
pIC50: −log10 of the molar value.

Molecular target: T1, ATP phosphoribosyltransferase (Mycobacterium tuberculosis (strain ATCC 25618 / H37Rv), UniProt P9WMN1)
T1 sequence (P9WMN1 whole entry): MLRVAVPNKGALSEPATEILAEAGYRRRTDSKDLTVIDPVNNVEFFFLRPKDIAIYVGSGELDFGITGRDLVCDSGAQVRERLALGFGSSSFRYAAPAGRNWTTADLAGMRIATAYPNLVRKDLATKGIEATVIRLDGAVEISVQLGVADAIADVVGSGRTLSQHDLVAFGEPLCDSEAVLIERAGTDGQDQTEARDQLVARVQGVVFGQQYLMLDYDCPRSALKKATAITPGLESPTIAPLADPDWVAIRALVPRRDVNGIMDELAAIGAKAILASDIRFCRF
Assay: Enzyme Inhibition Assay
Settings: pH 8.5; 22 °C
Description: Inhibition activity was determined using an assay that followed the production of PR-ATP spectrophotometrically. Enzymatic reaction was initiated by adding the substrate PRPP to reaction mixtures containing HisG enzyme and test compounds, and absorbance of product was monitored at 290 nm for 5 min until it formed a plateau.

| SMILES | pIC50 |
| --- | --- |
| O=C(CSc1nnc(-c2ccccc2)c(-c2ccccc2)n1)Nc1nccs1 [2-[(5,6-diphenyl-1,2,4-triazin-3-yl)sulfanyl]-N-(1,3-thiazol-2-yl)acetamide] | 5.40 |
| COc1ccc(COC(=O)C2=C(C)N=C3CC(c4cccs4)CC(=O)C3C2c2cccs2)cc1 (configuration not stated) [(4-methoxyphenyl)methyl 2-methyl-5-oxo-4,7-bis(thiophen-2-yl)-1,4,5,6,7,8-hexahydroquinoline-3-carboxylate] | 5.00 |
